Results reported in patent US11253527B2, “Method and composition for inhibiting virus infection” (priority 2019, dated 2022).

Experiments:
HBV = HBV entry/infection of DMSO-differentiated HuS-E/2 cells (HBsAg/HBeAg ELISA, HBV mRNA RT-PCR); type: cell-based, Hepatitis B virus; conditions: for levels of HBV mRNA: HuS-E/2 cells, drug present during infection; for inhibiting the entry of HBV into HuS-E/2 cells: by HBsAg, HBeAg and HBV mRNA expression levels
Method: (§1) DMSO-differentiated HuS-E/2 cells were exposed to HBV at a MOI of 10 for 20 h in the presence of the indicated concentration of Antrodia camphorata fruit body extracts, then the HBV and drugs were removed and the cells incubated for 2 days, when HBsAg secreted into the culture medium was measured by ELISA and expressed as a percentage of the value for the non-drug-treated controls. The results are the mean±SD for three independent experiments. *, P<0.05; **, P<0.01; ***, P<0.001.
as §1, with “HBeAg” for “HBsAg”
DMSO-differentiated HuS-E/2 cells were exposed to HBV at a MOI of 10 for 20 h in the presence of the indicated concentration of Antrodia camphorata fruit body extracts, then the HBV and drugs were removed and the cells incubated for 2 days. RNA was then extracted from cells and subjected to RT-PCR to measure HBV mRNA levels. The results expressed were as a percentage of the value for the non-drug-treated cells. Control PCRs were performed for endogenous GAPDH mRNA as the loading control. The results are the mean±SD for three independent experiments. *, P<0.05; **, P<0.01; ***, P<0.001.
HuS-E/2 cells that retains primary hepatocyte characteristics even after prolonged culture are utilized for HBV infection. For HBV infection, HuS-E/2 cells were differentiated with 2% DMSO for 7 days, and virus particles were collected to infect and replicate in HuS-E/2 cells as described in our previous study. These cells are useful to assay infectivity of HBV strains, and screening of anti-HBV agents.
Total DNA is extracted with a Genomic DNA isolation kit (Nexttec Biotechnologie, Germany). Total RNA is isolated from cultured cells using TRIzol® reagent (Invitrogen). […] The results are analyzed with the iCycler iQ real-time PCR detection system (Bio-Rad). […]
To evaluate the effects of Antrodia camphorata fruit body extracts on HBV infectivity and replication, HuS-E/2 cells were infected with ayw subtype HBV derived from HepG2.2.15 cells. The different Antrodia camphorata fruit body extracts were added to the medium during infection with HBV for […], then the infected cells were washed and incubated in fresh medium for 48 hours, when HBsAg and HBeAg in culture medium were detected by ELISA and HBV mRNA was detected by real-time PCR as an index of efficiency of HBV infection.

[1] = system: Oral epithelial cells (OC3); assay: MTT cell viability of mock- or HSV-1-infected oral epithelial cells (OC3); type: cell-based; conditions: OC3 cells, MTT, 19 hours post infection
Method: (§2) FIG. 4 provides Experimental conditions for evaluation of the effects of Antrodia camphorata fruit body extracts on oral epithelial cells during HSV-1 infection. Three experimental conditions, including no-treatment, pre-treatment and post-treatment were performed. Oral epithelial cells (OC3) were pre-treated with media only or media containing each Antrodia camphorata extracts for 2 hours, followed by HSV-1 inoculation. Cells were infected with HSV-1 viruses at multiplicity of infection (MOI) of 5 or mock infected for 1 hour at 37° C. for viral entry to occur. Antrodia camphorata extracts were not added during viral inoculation for 1 hour to avoid of its direct effects on virions. Mock- or HSV-1-infected cells were further incubated in the absence or presence of the drug for 19 hours.
The oral epithelial cell line (OC3) was used to determine the possible effects of Antrodia camphorata extracts on oral epithelial cells during HSV-1 infection. Cell monolayers were treated as illustrated in FIG. 4 (please also see details in the Materials and Methods section). Three experimental conditions, including no-treatment, pre-treatment and post-treatment were performed. Whether these Antrodia camphorata extracts have effects before or after viral infection were examined. The effects of Antrodia camphorata extracts on viral propagation (viral yields) in infected oral epithelial cells were examined. At 19-20 h post infection, viral yields in the supernatants were determined using the plaque assay. Viability of treated cells was also determined using the MTT assay for the mitochondrial dehydrogenase activity. Moreover, purified HSV-1 virions were directly treated with Antrodia camphorata extracts to examine whether Antrodia camphorata extracts exert anti-HSV-1 activity directly on virus particles before viral entry. […]
The mitochondrial dehydrogenase activity of treated cells was evaluated using the FBS-free medium containing 1 mg/ml of 3-[4,5-dimethylthiazol-2-yl]-2,5 diphenyltetrazolium bromide (MTT). […]

HSV-1 virus (KOS strain) = assay: HSV-1 viral yields in supernatants of OC3 cells, plaque assay; type: cell-based, Herpes simplex virus type 1; conditions: for viral yields in the supernatants, post-treatment: OC3 cells post-treated after HSV-1 infection (MOI 5), 19 hours; for viral yields in the supernatants, pre-treatment: OC3 cells pre-treated 2 hours before HSV-1 infection (MOI 5); for viral yield reduced to: media control = 100%
Method: as §2
(§3) The oral epithelial cell line (OC3) was used to determine the possible effects of Antrodia camphorata extracts on oral epithelial cells during HSV-1 infection. Cell monolayers were treated as illustrated in FIG. 4 (please also see details in the Materials and Methods section). Three experimental conditions, including no-treatment, pre-treatment and post-treatment were performed. Whether these Antrodia camphorata extracts have effects before or after viral infection were examined. The effects of Antrodia camphorata extracts on viral propagation (viral yields) in infected oral epithelial cells were examined. At 19-20 h post infection, viral yields in the supernatants were determined using the plaque assay. Viability of treated cells was also determined using the MTT assay for the mitochondrial dehydrogenase activity. Moreover, purified HSV-1 virions were directly treated with Antrodia camphorata extracts to examine whether Antrodia camphorata extracts exert anti-HSV-1 activity directly on virus particles before viral entry.
HSV-1 virus (KOS strain) from the extra-cellular fluid of infected Vero cells was purified using sucrose-gradient. Purified viruses were stored frozen in small aliquots. Purified viruses were titered using the plaque assay.
Oral epithelial cells (OC3 cells) were infected with HSV-1 at multiplicity of infection (MOI) of 5 or mock infected for 1 h at 37° C. for viral entry to occur. Unbound viruses were removed. Infected cells were then overlaid with appropriate media and incubated at 37° C. The Antrodia camphorata fruit body extracts used were A2 (Antrodia camphorata extracts), A3 (dehydrosulphurenic acid), A4 (antcin K), A5 (versisponic acid), and A6 (dehydroeburicoic acid). For the effects of Antrodia camphorata fruit body extracts, oral cells were treated in three different experimental conditions (FIG. 1): (1) no treatment, (2) pre-treatment with each Antrodia camphorata fruit body extracts before infection and (3) post-treatment with each Antrodia camphorata fruit body extracts after infection. Purified HSV-1 virions were also incubated directly with media only or media containing Antrodia camphorata fruit body extracts. The viral infectivity of treated virions was then examined using the plaque assay.
Viral titers in the supernatants after infection were determined using the plaque assay. Cells were grown to confluence and infected with tenfold serial dilution of the samples. Cells were then overlaid with medium containing 3% carboxymethylcellulose to prevent the formation of secondary plaques. Cells were incubated until well-defined clear plaques were formed. Cells were fixed with 3.7% formaldehyde and stained with crystal violet. Plaques were observed and counted under an inverted microscope. The viral yield of the media-pretreated HSV-1 infected control was considered to be 100%.

HSV-1 virions = assay: Direct effect on infectivity of purified HSV-1 virions, plaque assay; type: cell-based, Herpes simplex virus type 1; conditions: purified virions incubated directly with drug 1 hour at 37° C., dose-dependent
Method: Purified HSV-1 was incubated directly with media containing various concentrations of each Antrodia camphorata extracts for 1 hour at 37° C. The viral titers were then examined in oral epithelial cells (OC3) using the plaque assay. The results shown are the mean±SEM from at least three independent experiments. Statistical differences are shown by different lowercase letters (analysis of variance, Tukey, α=0.05).
as §3
Oral epithelial cells (OC3 cells) were infected with HSV-1 at multiplicity of infection (MOI) of 5 or mock infected for 1 h at 37° C. for viral entry to occur. Unbound viruses were removed. Infected cells were then overlaid with appropriate media and incubated at 37° C. The Antrodia camphorata fruit body extracts used were A2 (Antrodia camphorata extracts), A3 (dehydrosulphurenic acid), A4 (antcin K), A5 (versisponic acid), and A6 (dehydroeburicoic acid). […]
Viral titers in the supernatants after infection were determined using the plaque assay. […] Plaques were observed and counted under an inverted microscope. […]

[2] = system: HuS-E/2 immortalized human primary hepatocytes cells; assay: MTT cell viability, HuS-E/2 cells; conditions: 48 h, 20 μg/ml
HepG2.2.15 cells = assay: MTT cell viability, HepG2.2.15 cells; conditions: 48 h, 20 μg/ml
[3] = OC3 cells post-treated with 2.5 μg/ml after HSV-1 infection
[4] = OC3 cells pre-treated with 10 μg/ml for 2 hours before HSV-1 infection

Row | SMILES | levels of HBV mRNA (HBV) | inhibiting the entry of HBV into HuS-E/2 cells (HBV) | viability of mock-infected cells or HSV-1 infected cells [1] | viral yields in the supernatants, post-treatment (HSV-1 virus (KOS strain)) | viral yields in the supernatants, pre-treatment (HSV-1 virus (KOS strain)) | viral yield reduced to (HSV-1 virus (KOS strain); OC3 cells pre-treated with 25 μg/ml for 2 hours before HSV-1 infection) | viral yield reduced to (HSV-1 virus (KOS strain); infected OC3 cells post-treated with 12.5 μg/ml) | viral infectivity of treated HSV-1 virions (HSV-1 virions) | toxic effect (MTT cell viability) [2] | toxic effect (MTT cell viability) (HepG2.2.15 cells) | viral yield reduced to (HSV-1 virus (KOS strain); [3]) | viral yield reduced to (HSV-1 virus (KOS strain); [4])
1 | C=C(CC[C@@H](C(=O)O)[C@H]1C[C@H](OC(C)=O)[C@@]2(C)C3=C(CC[C@]12C)[C@@]1(C)CC[C@H](O)C(C)(C)[C@@H]1CC3)C(C)C [A5, versisponic acid] | decrease | much more effective | not affected evidently | significantly reduced | significantly reduced | 48% | 57% | statistically significantly inhibited | no toxic effect | little or no toxic effect |  | 
2 | C=C(CC[C@@H](C(=O)O)[C@H]1CC[C@@]2(C)C3=CC[C@H]4C(C)(C)[C@@H](O)CC[C@]4(C)C3=CC[C@]12C)C(C)C [A6, dehydroeburicoic acid] | decrease | much more effective |  | significantly reduced | significantly reduced |  |  | statistically significantly inhibited | no toxic effect |  | 63% | 37%
3 | C=C(CC[C@H](C(=O)O)[C@H]1C[C@H](O)[C@@]2(C)C3=CC[C@H]4C(C)(C)[C@@H](O)CC[C@]4(C)C3=CC[C@]12C)C(C)C [A3, dehydrosulphurenic acid] |  |  | not affected evidently | did not reach statistical difference | did not reach statistical difference |  |  |  |  |  | 65% | 57%
